Biological target: T1, acetylcholinesterase (Electrophorus electricus, UniProt O42275)
T1 construct: purchased SIGMA C 2888; host or cells: electric organ of Electrophorus electricus
Test: cholinesterase inhibitory activity: acetylcholinesterase activity by the Ellman method
Format: biochemical
Conditions: acetylthiocholine iodide substrate, DTNB, phosphate buffer pH 8, 25° C., absorbance at 412 nm; read-out: IC50 ± SD (inhibitory concentration at 50% activity of the enzyme)
Experimental: In order to measure the cholinesterase inhibitory activity of the compounds of the invention, the enzymatic activity of acetylcholinesterase is evaluated by the Ellman method (Biochemical Pharmacology, 1961, Vol. 7 pp 88-95, Ellman et al.).
The principle of the method comprises measuring the rate of thiocholine at the time of hydrolysis of the acetylcholine by the enzyme. The hydrolysis is accompanied by a continuous reaction between thiocholine and 5,5'-dithio-2-nitrobenzoic acid (DTNB) which leads to the formation of the yellow colored 5-thio-2-nitrobenzoate anion. The rate of the formation of the anion is measured by absorbance at 412 nm.
The material used is comprised of a 0.1 M (pH 8) phosphate buffer: Na2 HPO4 /NaH2 PO4, an enzyme: acetylcholinesterase from the electrical organ of the electric ray Electrophorus electricus (SIGMA C 2888) purified on Sephadex resin, a substrate: acetylthiocholine iodide 7.5 mM (21.67 mg/10 ml of phosphate buffer) and a reagant: 5,5'-dithio-2-nitrobenzoic acid (DTNB) 10 mM (39.6mg / 10 ml of phosphate buffer).
Thus 3 ml of phosphate buffer, 100 μl of DTNB, 2 μl enzyme, 3.3 μl of the compound according to the invention, and 200 μl of substrate are mixed at 25° C., subsequently the change of absorbance at 412 nm is measured immediately.

T1 sequence (O42275 24-633): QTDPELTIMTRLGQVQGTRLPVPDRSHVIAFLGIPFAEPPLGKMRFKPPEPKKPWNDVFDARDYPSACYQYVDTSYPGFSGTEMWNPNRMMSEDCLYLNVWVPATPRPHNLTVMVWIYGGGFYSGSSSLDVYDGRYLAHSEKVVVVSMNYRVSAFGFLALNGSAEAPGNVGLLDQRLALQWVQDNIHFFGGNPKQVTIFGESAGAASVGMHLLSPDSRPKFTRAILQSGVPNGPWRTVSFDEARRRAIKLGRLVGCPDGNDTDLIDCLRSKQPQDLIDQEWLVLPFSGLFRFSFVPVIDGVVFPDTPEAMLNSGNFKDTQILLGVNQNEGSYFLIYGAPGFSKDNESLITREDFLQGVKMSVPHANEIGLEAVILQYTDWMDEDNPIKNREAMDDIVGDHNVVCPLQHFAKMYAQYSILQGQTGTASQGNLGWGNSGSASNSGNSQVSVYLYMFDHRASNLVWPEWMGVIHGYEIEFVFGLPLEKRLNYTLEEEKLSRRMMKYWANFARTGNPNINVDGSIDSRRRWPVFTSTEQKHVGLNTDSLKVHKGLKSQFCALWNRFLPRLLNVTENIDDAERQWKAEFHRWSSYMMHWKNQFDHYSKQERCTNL

Work on `COc1ccc2c3c1O[C@H]1C[C@@H](O)C=C[C@@]31CC[N+](C)=C2` [Example 1, galanthaminium methanesulfonate] yielded an IC50 of 80 ± 2 nM.

Work on `COc1ccc2c3c1O[C@H]1C[C@@H](O)C=C[C@@]31CC[N+](CCCCCCn1cccc1)=C2` [Example 11, 10-N-demethyl-10-N-(6'pyrrolohexyl)-galanthaminium bromohydrate] yielded an IC50 of 170 ± 10 nM.

Source: patent publication US5958903A, “Galanthamine derivatives, and their pharmaceutical compositions” (priority 1995, dated 1999)
